Measurements published in US8933110B2, “Hepatitis C virus inhibitors” (Enanta Pharmaceuticals, Inc., priority 2010, dated 2015).
Like-named read-outs stand apart in the source and are kept apart here.

System: HCV 1b genotype replicon
Assay: HCV replicon assay (qRT-PCR or luciferase), genotype 1b
Type: cell-based
Settings: Hepatitis C virus
Description: HCV replicon cell lines (kindly provided by R. Bartenschlager) isolated from colonies as described by Lohman et al. (Lohman et al. (1999) Science 285: 110-113, expressly incorporated by reference in its entirety) and used for all experiments. The HCV replicon has the nucleic acid sequence set forth in EMBL Accession No.: AJ242651, the coding sequence of which is from nucleotides 1801 to 8406.
The coding sequence of the published HCV replicon was synthesized and subsequently assembled in a modified plasmid pBR322 (Promega, Madison, Wis.) using standard molecular biology techniques. One replicon cell line (“SGR 11-7”) stably expresses HCV replicon RNA which consists of (i) the HCV 5′UTR fused to the first 12 amino acids of the capsid protein, (ii) the neomycin phosphotransferase gene (neo), (iii) the IRES from encephalomyocarditis virus (EMCV) and (iv) HCV NS2 to NS5B genes and the HCV 3′UTR. Another replicon cell line (“Huh-luc/neo-ET”) described by Vrolijk et. al. (Vrolijk et. al. (2003) Journal of Virological Methods 110:201-209, expressly incorporated by reference in its entirety) stably expresses HCV replicon RNA which consists of (i) the HCV 5′UTR fused to the first 12 amino acids of the capsid protein, (ii) the firefly luciferase reporter gene, (iii) the ubiquitin gene, (iv) the neomycin phosphotransferase gene (neo), (v) the IRES from encephalomyocarditis virus (EMCV) and (vi) HCV NS3 to NS5B genes that harbor cell culture adaptive mutations (E1202G, T12801, K1846T) and the HCV 3′UTR.
These cell lines are maintained at 37° C., 5% CO2, 100% relative humidity in DMEM (Cat#11965-084, Invitrogen), with 10% fetal calf serum (“FCS”, Invitrogen), 1% non-essential amino acids (Invitrogen), 1% of Glutamax (Invitrogen), 1% of 100× penicillin/streptomycin (Cat#15140-122, Invitrogen) and Geneticin (Cat#10131-027, Invitrogen) at 0.75 mg/ml or 0.5 mg/ml for 11-7 and Huh-luc/neo-ET cells, respectively.
EC50 values of single agent compounds were determined by HCV RNA detection using quantitative RT-PCR, according to the manufacturer's instructions, with a TAQMAN® One-Step RT-PCR Master Mix Reagents Kit (Cat#AB 4309169, Applied Biosystems) on an ABI Model 7500 thermocycler. EC50 values of combinations are similarly determined by HCV RNA detection using quantitative RT-PCR. The TAQMAN primers to use for detecting and quantifying HCV RNA obtained from Integrated DNA Technologies. HCV RNA is normalized to GAPDH RNA levels in drug-treated cells, which is detected and quantified using the Human GAPDH Endogenous Control Mix (Applied Biosystems, AB 4310884E). Total cellular RNA is purified from 96-well plates using the RNAqueous 96 kit (Ambion, Cat#AM1812). Chemical agent cytotoxicity is evaluated using an MTS assay according to the manufacturer's directions (Promega).
Since clinical drug resistance often develops in viral infections following single agent therapies, there is a need to assess the additive, antagonistic, or synergistic properties of combination therapies. We use the HCV replicon system to assess the potential use of the compound of the present invention or in combination therapies with Interferon alpha, cyclosporine analogs and inhibitors targeting other HCV proteins. The acute effects of a single or combinations of drugs are studied in the “Huh-luc/neo-ET” replicon with each chemical agent titrated in an X or Y direction in a 6 point two-fold dilution curve centered around the EC50 of each drug. Briefly, replicon cells are seeded at 7,000 cells per well in 90 ul DMEM (without phenol red, Invitrogen Cat.#31053-036) per well with 10% FCS, 1% non-essential amino acids, 1% of Glutamax and 1% of 100× penicillin/streptomycin and incubated overnight at 37° C., 5% CO2, 100% relative humidity. […]

[1] = read-out: Genotype-1b replicon EC50 Range
[2] = read-out: Genotype-1b replicon EC50

| Compound | EC50 [1] [nM] | EC50 [2] [nM] |
| --- | --- | --- |
| COC(=O)N[C@H]1CCCCOCc2[nH]c(nc2-c2ccc(-c3ccc(-c4c[nH]c([C@@H]5CCCN5C(=O)[C@@H](NC(=O)OC)C(C)C)n4)cc3)cc2)[C@@H]2CCCN2C1=O [Example 83] | < 0.1 | – |
| COC(=O)N[C@H]1CCCCOCc2[nH]c(nc2-c2ccc(-c3ccc(-c4c[nH]c([C@@H]5CC6(CC6)CN5C(=O)[C@@H](NC(=O)OC)C(C)C)n4)cc3)cc2)[C@@H]2CCCN2C1=O [Example 258] | < 0.1 | 0.014 |
| COC(=O)N[C@H](C(=O)N1CCC[C@H]1c1nc(-c2ccc(-c3ccc(-c4nc5[nH]c4COCCC[C@H](C)[C@H](NC(=O)OC)C(=O)N4CCC[C@@H]54)cc3)cc2)c[nH]1)C(C)C [Example 317] | < 0.1 | – |
| COC(=O)N[C@H](C(=O)N1CCC[C@H]1c1nc(-c2ccc(-c3ccc(-c4nc5[nH]c4COC/C=C/[C@H](C)[C@H](NC(=O)OC)C(=O)N4CCC[C@@H]54)cc3)cc2)c[nH]1)C(C)C [Example 318] | 0.1 to 1 | – |
| COC(=O)N[C@H]1CCCCCOCc2[nH]c(nc2-c2ccc(-c3ccc(-c4c[nH]c([C@@H]5CCCN5C(=O)[C@@H](NC(=O)OC)C(C)C)n4)cc3)cc2)[C@@H]2CCCN2C1=O [Example 322] | < 0.1 | – |
| COC(=O)N[C@H]1Cc2cc(on2)COCc2[nH]c(nc2-c2ccc(-c3ccc(-c4c[nH]c([C@@H]5CCCN5C(=O)[C@@H](NC(=O)OC)C(C)C)n4)cc3)cc2)[C@@H]2CCCN2C1=O [Example 333] | < 0.1 | 0.083 |
| COC(=O)N[C@H]1CCCCOCc2[nH]c(nc2-c2ccc(-c3ccc(-c4nc5[nH]c4COCCCC[C@H](NC(=O)OC)C(=O)N4CCC[C@@H]54)cc3)cc2)[C@@H]2CCCN2C1=O [Example 336] | 0.1 to 1 | 0.175 |
| COC(=O)N[C@H]1C/C=C/COCc2[nH]c(nc2-c2ccc(-c3ccc(-c4c[nH]c([C@@H]5CCCN5C(=O)[C@@H](NC(=O)OC)C(C)C)n4)cc3)cc2)[C@@H]2CCCN2C1=O [Example 344] | < 0.1 | 0.047 |
| COC(=O)N[C@H](C(=O)N1CCC[C@H]1c1nc(-c2ccc(-c3ccc(-c4nc5[nH]c4COCCCCO[C@H](C)[C@H](NC(=O)OC)C(=O)N4CCC[C@@H]54)cc3)cc2)c[nH]1)C(C)C [Example 349] | < 0.1 | – |
| COC(=O)N[C@H]1COCCCCOCc2[nH]c(nc2-c2ccc(-c3ccc(-c4c[nH]c([C@@H]5CCCN5C(=O)[C@@H](NC(=O)OC)C(C)C)n4)cc3)cc2)[C@@H]2CCCN2C1=O [Example 353] | < 0.1 | 0.023 |
| COC(=O)N[C@H]1CCCCC/C=C\COCc2[nH]c(nc2-c2ccc(-c3ccc(-c4c[nH]c([C@@H]5CCCN5C(=O)[C@@H](NC(=O)OC)C(C)C)n4)cc3)cc2)[C@@H]2CCCN2C1=O [Example 355] | < 0.1 | – |
| COC(=O)N[C@H]1CCCCCCCCOCc2[nH]c(nc2-c2ccc(-c3ccc(-c4c[nH]c([C@@H]5CCCN5C(=O)[C@@H](NC(=O)OC)C(C)C)n4)cc3)cc2)[C@@H]2CCCN2C1=O [Example 356] | < 0.1 | – |
| COC(=O)N[C@H]1C/C=C/COCc2[nH]c(nc2-c2ccc(-c3ccc(-c4c[nH]c([C@@H]5CCCN5C(=O)[C@@H](NC(=O)OC)C(C)C)n4)cc3)cc2)CN(C)C1=O [Example 359] | > 1 | – |
| COC(=O)N[C@H]1CCCCCCOCc2[nH]c(nc2-c2ccc(-c3ccc(-c4c[nH]c([C@@H]5CCCN5C(=O)[C@@H](NC(=O)OC)C(C)C)n4)cc3)cc2)[C@@H]2CCCN2C1=O [Example 366] | < 0.1 | – |
| COC(=O)N[C@H]1CCCCCCCOCc2[nH]c(nc2-c2ccc(-c3ccc(-c4c[nH]c([C@@H]5CCCN5C(=O)[C@@H](NC(=O)OC)C(C)C)n4)cc3)cc2)[C@@H]2CCCN2C1=O [Example 368] | < 0.1 | – |
